Test results taken from ChEMBL document CHEMBL6071155, “Discovery of selective Orai channel blockers bearing an indazole or a pyrazole scaffold” (Eur J Med Chem, 2024).
Active and inactive are the calls of the source. The calls are words filed in the database; no cut-off is given here.

Columns and labels:
Jurkat T = assay: Inhibition of NFAT (unknown origin) activation transfected in human Jurkat T cells expressing firefly luciferase gene at 10 uM preincubated with compound for 30 mins followed by PMA/ionomysin addition and measured after 18 hrs by luminometer relative to control; type: cell-based; conditions: time 18.5 hrs
Jurkat [1] = assay: Cytotoxicity against human Jurkat T cells assessed as decrease in cell viability at 30 uM incubated for 48 hrs by trypan blue exclusion method; type: toxicity, cell-based
[2] = Inhibition of Store-operated calcium entry (SOCE) in phytohemagglutinin-stimulated human Jurkat T cells at 30 uM in presence of Ca2+ by fura-2 dye based calcium imaging analysis relative to control; type: functional
[3] = biological target: Transient receptor potential cation channel subfamily M member 7 (Homo sapiens) (UniProt Q96QT4); assay: Activation of TRPM7 in human Jurkat T cells at 30 uM by patch clamp electrophysiology; type: cell-based
[4] = biological target: Transient receptor potential cation channel subfamily M member 4 (Homo sapiens) (UniProt Q8TD43); assay: Activation of GFP-tagged human TRPM4 transfected in HEK293 cells at 30 uM by patch clamp electrophysiology; type: cell-based
[5] = test system: Calcium release-activated calcium channel protein 1 (Homo sapiens), Q96D31 [G98S]; assay: Reversible inhibition of myc-tagged human Orai-1 G98S mutant expressed in HEK293 cells assessed as reduction in inward current at 10 uM measured upto 6 mins by patch clamp electrophysiology; type: cell-based
[6] = (§1) Inhibition of Store-operated calcium entry (SOCE) in phytohemagglutinin-stimulated human Jurkat T cells in presence of Ca2+ by fura-2 dye based calcium imaging analysis; type: functional, cell-based
Jurkat [7] = assay: as §1; type: functional, cell-based
[8] = test system: Calcium release-activated calcium channel protein 1 (Homo sapiens), Q96D31 [G98S]; assay: Inhibition of myc-tagged human orai-1 G98S mutant expressed in HEK293 cells assessed as decrease in inward current at 30 uM by patch clamp electrophysiology technique relative to control; type: cell-based
[9] = biological target: Calcium release-activated calcium channel protein 1 (Homo sapiens, UniProt Q96D31, G98S); assay: (§2) Inhibition of myc-tagged human orai-1 G98S mutant expressed in HEK293 cells assessed as decrease in inward current by patch clamp electrophysiology technique; type: cell-based
[10] = test system: Calcium release-activated calcium channel protein 1 (Homo sapiens), Q96D31 [G98S]; assay: as §2; type: cell-based; conditions: dose 1-30 µM
Jurkat [11] = assay: Cytotoxicity against human Jurkat T cells assessed as cell killing at 30 uM incubated for 48 hrs by trypan blue exclusion method relative to control; type: toxicity, cell-based
[12] = biological target: Transient receptor potential cation channel subfamily M member 4 (Homo sapiens) (UniProt Q8TD43); assay: Activation of GFP-tagged human TRPM4 transfected in HEK293 cells at 10 uM by patch clamp electrophysiology; type: cell-based; conditions: filed as opener

Calcium release-activated calcium channel protein 1 (Homo sapiens), Q96D31 [G98S], sequence (Q96D31 whole entry G98S): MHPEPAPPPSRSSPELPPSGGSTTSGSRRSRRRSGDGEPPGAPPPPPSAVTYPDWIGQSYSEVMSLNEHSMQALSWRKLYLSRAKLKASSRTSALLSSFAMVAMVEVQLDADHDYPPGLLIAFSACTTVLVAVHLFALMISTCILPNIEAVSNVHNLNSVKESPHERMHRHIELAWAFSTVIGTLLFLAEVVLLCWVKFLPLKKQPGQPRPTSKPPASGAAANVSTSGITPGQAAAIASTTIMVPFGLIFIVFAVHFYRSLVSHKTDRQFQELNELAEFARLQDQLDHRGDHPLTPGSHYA
Transient receptor potential cation channel subfamily M member 4 (Homo sapiens), sequence (Q8TD43 whole entry): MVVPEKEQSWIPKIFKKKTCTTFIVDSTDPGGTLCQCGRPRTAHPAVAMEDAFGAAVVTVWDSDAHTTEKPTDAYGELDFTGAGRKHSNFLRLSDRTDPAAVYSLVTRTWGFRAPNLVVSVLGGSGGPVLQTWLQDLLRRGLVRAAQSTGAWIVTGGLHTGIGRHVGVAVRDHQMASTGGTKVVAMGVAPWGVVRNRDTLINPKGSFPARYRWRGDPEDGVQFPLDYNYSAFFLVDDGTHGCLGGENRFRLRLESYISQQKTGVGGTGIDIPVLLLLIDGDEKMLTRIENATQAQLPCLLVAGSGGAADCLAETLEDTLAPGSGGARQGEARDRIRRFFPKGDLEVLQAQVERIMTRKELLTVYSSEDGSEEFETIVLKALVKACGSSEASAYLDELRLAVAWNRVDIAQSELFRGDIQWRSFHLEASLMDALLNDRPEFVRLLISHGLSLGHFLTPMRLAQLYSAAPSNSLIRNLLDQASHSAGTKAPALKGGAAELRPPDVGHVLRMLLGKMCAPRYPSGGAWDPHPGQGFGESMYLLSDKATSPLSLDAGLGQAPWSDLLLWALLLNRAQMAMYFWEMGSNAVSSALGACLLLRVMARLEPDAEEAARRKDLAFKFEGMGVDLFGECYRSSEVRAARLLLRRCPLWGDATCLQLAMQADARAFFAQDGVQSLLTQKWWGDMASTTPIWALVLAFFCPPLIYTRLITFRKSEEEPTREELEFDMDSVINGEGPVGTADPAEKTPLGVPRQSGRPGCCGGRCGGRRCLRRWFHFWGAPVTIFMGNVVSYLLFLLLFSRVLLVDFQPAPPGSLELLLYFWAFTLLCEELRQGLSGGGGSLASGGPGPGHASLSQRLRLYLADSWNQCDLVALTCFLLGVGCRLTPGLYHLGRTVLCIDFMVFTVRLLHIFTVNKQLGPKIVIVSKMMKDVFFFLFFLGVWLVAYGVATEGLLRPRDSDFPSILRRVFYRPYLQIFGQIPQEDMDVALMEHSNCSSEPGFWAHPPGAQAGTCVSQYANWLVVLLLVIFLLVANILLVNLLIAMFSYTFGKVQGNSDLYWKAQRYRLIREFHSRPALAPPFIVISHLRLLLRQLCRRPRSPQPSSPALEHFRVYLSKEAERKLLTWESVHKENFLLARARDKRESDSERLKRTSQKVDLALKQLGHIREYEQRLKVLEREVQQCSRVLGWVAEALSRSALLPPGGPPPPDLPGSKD
Transient receptor potential cation channel subfamily M member 7 (Homo sapiens), sequence (Q96QT4 whole entry): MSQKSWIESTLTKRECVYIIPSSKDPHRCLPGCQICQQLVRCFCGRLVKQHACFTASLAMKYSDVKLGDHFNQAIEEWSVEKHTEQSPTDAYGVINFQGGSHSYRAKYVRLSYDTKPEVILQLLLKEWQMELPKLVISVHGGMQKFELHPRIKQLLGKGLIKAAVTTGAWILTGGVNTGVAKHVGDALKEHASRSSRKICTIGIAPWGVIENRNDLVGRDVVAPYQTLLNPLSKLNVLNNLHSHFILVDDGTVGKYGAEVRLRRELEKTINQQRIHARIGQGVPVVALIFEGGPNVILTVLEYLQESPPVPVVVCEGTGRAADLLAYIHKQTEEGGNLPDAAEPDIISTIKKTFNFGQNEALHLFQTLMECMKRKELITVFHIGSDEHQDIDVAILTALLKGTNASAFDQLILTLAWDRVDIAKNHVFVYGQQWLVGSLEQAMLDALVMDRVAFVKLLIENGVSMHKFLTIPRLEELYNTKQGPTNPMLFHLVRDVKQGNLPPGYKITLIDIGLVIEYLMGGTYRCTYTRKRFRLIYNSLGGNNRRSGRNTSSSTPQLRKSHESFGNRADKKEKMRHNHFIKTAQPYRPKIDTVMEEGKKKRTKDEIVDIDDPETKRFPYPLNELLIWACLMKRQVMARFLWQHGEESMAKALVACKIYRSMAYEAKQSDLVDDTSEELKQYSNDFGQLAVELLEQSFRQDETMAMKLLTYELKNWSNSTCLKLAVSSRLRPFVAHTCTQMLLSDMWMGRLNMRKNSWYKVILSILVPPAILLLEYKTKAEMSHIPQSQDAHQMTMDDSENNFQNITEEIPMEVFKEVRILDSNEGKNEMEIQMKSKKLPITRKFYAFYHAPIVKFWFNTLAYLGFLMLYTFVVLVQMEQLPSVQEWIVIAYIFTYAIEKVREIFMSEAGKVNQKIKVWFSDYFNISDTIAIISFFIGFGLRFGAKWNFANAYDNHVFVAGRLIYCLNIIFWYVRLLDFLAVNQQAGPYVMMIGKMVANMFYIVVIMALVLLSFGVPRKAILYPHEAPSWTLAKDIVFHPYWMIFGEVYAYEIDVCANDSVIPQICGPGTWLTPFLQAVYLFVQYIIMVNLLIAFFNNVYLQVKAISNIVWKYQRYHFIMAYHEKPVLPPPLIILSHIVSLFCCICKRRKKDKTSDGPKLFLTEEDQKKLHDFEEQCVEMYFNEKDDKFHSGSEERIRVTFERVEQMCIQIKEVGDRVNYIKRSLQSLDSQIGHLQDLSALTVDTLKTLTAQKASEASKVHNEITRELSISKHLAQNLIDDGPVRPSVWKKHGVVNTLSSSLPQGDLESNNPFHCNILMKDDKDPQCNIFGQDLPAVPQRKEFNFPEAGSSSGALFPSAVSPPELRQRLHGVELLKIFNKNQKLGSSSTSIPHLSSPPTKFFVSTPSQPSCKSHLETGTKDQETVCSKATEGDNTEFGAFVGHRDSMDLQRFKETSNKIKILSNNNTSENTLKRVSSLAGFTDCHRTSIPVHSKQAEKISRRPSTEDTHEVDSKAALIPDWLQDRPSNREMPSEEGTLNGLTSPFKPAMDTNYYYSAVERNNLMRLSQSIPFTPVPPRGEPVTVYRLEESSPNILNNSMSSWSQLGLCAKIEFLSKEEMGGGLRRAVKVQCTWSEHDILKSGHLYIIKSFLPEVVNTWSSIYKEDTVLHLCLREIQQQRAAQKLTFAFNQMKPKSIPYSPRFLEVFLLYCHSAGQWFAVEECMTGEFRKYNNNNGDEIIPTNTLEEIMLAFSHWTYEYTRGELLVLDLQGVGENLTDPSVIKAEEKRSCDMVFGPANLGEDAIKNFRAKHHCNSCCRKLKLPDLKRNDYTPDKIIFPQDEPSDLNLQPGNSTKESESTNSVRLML
Calcium release-activated calcium channel protein 1, sequence (Q96D31 whole entry G98S): as the sequence (Q96D31 whole entry G98S) above

Structure (SMILES)	inhibition (Jurkat T)	also measured
O=C(Nc1ccncc1F)c1nn(C(=O)C2CC2)c2ccccc12	76.8%	
Cc1cnccc1NC(=O)c1nn(CC2CCC2)c2c1CCCC2	92.6%	
Cc1cnccc1NC(=O)c1nn(CC2CCC2)c2ccccc12	92.4%	
O=C(Nc1c(F)cccc1F)c1nn(CC2CC2)c2c1CCCC2	53.9%	
Cc1cnccc1NC(=O)c1nn(CC2CC2)c2c1CCC2	55.5%	
O=C(Nc1ccncc1F)c1nn(CC2CC2)c2c(F)cccc12	48.5%	
Cc1cnccc1NC(=O)c1nn(CC2CC2)c2ccccc12	86.9%	
Cc1ccc2c(c1)c(C(=O)Nc1ccncc1F)nn2CC1CC1	81.9%	
O=C(Nc1ccncc1F)c1nn(CC2CC2)c2ccc(Br)cc12	58.6%	
O=C(Nc1ccncc1F)c1nn(CC2CC2)c2ccccc12	97.9%	Activity (Jurkat [1]): Non-Toxic; inhibition at 30 µM [2]: 100%; Activity [3]: inactive; Activity [4]: inactive; inhibition [5]: Active; IC50 [6]: 10 µM; inhibition (Jurkat [7]): Dose-Dependent Effect; inhibition [8]: 100%; IC50 [9]: 4.9 µM; inhibition [10]: Dose-Dependent Effect
O=C(Nc1ccncc1F)c1nn(CC2CC2)c2ccc(F)cc12	77.3%	
O=C(Nc1ccncc1F)c1nn(CC2CCCC2)c2ccccc12	95.4%	
O=C(Nc1ccncc1F)c1nn(CC2CC2)c2cc(F)ccc12	96.1%	
O=C(Nc1ccncc1F)c1nn(CC2CCCCC2)c2ccccc12	88.4%	
O=C(Nc1ccncc1F)c1nn(CC2CCC2)c2ccccc12	80.5%	
O=C(Nc1ccncc1F)c1nn(CC2CC2)c2c1CCCC2	87.3%	
O=C(Nc1ccncc1F)c1nn(CC2CC2)c2ncccc12	64.6%	inhibition [5]: Active
O=C(Nc1c(F)cccc1F)c1ccn(CC2CC2)n1	inactive	
O=C(Nc1ccncc1F)c1ccn(CC2CC2)n1	60.2%	
Cc1cnccc1NC(=O)c1ccn(CC2CC2)n1	61.3%	
Cc1nnsc1C(=O)Nc1ccc(-n2nc(C(F)(F)F)cc2C(F)(F)F)cc1		Activity (Jurkat [11]): ~ 80%; Activity [12]: Active
O=C(Nc1ccncc1F)c1nn(CC2CC2)c2cc(Cl)ccc12	51.9%	
O=C(Nc1ccncc1F)c1nn(CC2CCC2)c2c1CCCC2	92.8%	
O=C(Nc1ccncc1F)c1nn(CC2CC2)c2c1CCC2	63.6%	
Cc1cnccc1NC(=O)c1nn(CC2CC2)c2c1CCCC2	88.7%	
